In data set [1] the test system is 16 MDR P. aeruginosa clinical isolates. The experiment in a line: Pyocyanin production in MDR clinical isolates. To be noted: Pseudomonas aeruginosa, 18 h, Control about 100, replicates.
In data set [2] the test system is MvfR-regulated small molecules in PA14. The data set can be described thus: Production of HAQs, 2-AA, DHQ and AA in PA14 cultures (LC-MS). To be noted: Pseudomonas aeruginosa.
For data set [3], the system named is pyocyanin production in PA14. The experiment in a line: Pyocyanin production assay. To be noted: Pseudomonas aeruginosa; for activity at 50 µM: PA14, 18 h, read-out: % Production Pyocyanin; for IC50: PA14, read-out: IC50 pyocyanin production.
For data set [4], the system named is PA14 AT/P cells. The experiment in a line: AT/P cells formation assay in PA14. In kind it is cell-based, Pseudomonas aeruginosa. The note with it: for inhibition at 10 µM: Pseudomonas aeruginosa, PA14, 24 h, read-out: inhibition of AT/P cells formation.
Data set [5] concerns mvfR mutant constitutively expressing the pqsABCDE operon. In kind it is cell-based. The note with it: Pseudomonas aeruginosa, control about 100, single replicates (Figure 4a).
Data set [6] relates to PA14 isogenic mutant ΔmvfR AT/P cells. The experiment in a line: AT/P cell formation in ΔmvfR mutant (off-target). The note with it: Pseudomonas aeruginosa, PA14, 24 h, read-out: AT/P cell formation, ΔmvfR + compound; PA14 about 100; single replicates (Figure 4b).
Data set [7] has as its system pqsA promoter (PA14 PpqsA-GFPASV). The data set can be described thus: pqsA-GFP reporter expression. In kind it is cell-based, Pseudomonas aeruginosa. To be noted: Pseudomonas aeruginosa; for activity at 50 µM: PA14, read-out: % Production pqsA-GFP.
Data set [8] has as its system ΔmvfR biofilm. The experiment in a line: Biofilm formation of ΔmvfR mutant (off-target). The note with it: Pseudomonas aeruginosa, PA14, 24 h, read-out: Biofilm formation, ΔmvfR + compound; PA14 about 100; single replicates (Figure 4c).
Protocol: Biofilm was grown in the 96-well microtiter plate at 37 °C for 24 h containing M63 minimal media in the presence of 10 µM of the compounds or vehicle. The biofilm grown with the vehicle was considered as a control. The percentage value was calculated in comparison to the PA14 control. a–c Data represent at least n = 3, each dot on the graph represents one biological replicate. The number of biological replicates for each compound and strain is depicted in the graph. The error bars denote ±SEM.
The overnight grown starter culture was diluted 1:1000 in 5 mL LB media in a glass tube and was incubated at 37 °C and 200 rpm in an incubator shaker until the culture reached an OD600nm 3.0. The culture was then diluted at 1:100 in M63 minimal media supplemented with 0.2% glucose, 0.5% Casamino Acids, and 1 mM MgSO4. Initiation of the Biofilm formation was performed in the 96 well plates; 200 µL of diluted culture was added in the wells with (10 µM) or without compounds. The cultures were allowed to grow at 37 °C in static conditions for 24 hours. Thereafter, planktonic culture was removed from the wells, and wells were washed three times with distilled water (DW). Biofilm was stained with 0.1% crystal violet and incubated for 15 min at room temperature (RT). Access dye was removed from the wells and washed off three times with DW, and 200 µL ethanol: acetone (80:20) was added to the wells. The plate was incubated for 30 min at RT, and the OD was measured by spectrophotometry at 570 nm in the infinite F200 plate reader using the Magellan software (Tecan, Switzerland). Percent biofilm formation was calculated in comparison to PA14 culture that was grown in the absence of compounds.
Data set [9] can be described thus: Solubility in iPBS pH 7.4 by HPLC. In kind it is physicochemical. The note with it: kinetic from dmso stock. The procedure: Solubility of the 10 mM compounds dissolved in DMSO was tested in the isotonic phosphate buffer (iPBS) at pH 7.4 using High-Performance Liquid Chromatography (HPLC). For the preparation of iPBS phosphate-buffered saline tab (Sigma-Aldrich 08057-12Tab-F) is dissolved in 500 mL of deionized water and the final composition of the solution contains 10 mM PBS, 2.7 mM KCl, 140 mM NaCl and 0.05% Tween. A total 10 µL of the compound from a 10 mM stock solution in DMSO was added to the vial, and 190 µL of buffer was added to each vial and mixed with shaking at room temperature for 4 h. Thereafter the samples were filtered, and 160 µL of the sample was mixed with 40 µL of DMSO for the final injection. Ibuprofen (high solubility) and Progesterone (low Solubility) were used as standard compounds. Ammonium Acetate aqueous solution (50 mM, pH 7.4) and the acetonitrile were used as mobile phases A and B, respectively. The measurement of concentration was achieved by comparing of UV absorbance of the sample solution and the known standard solution following an HPLC separation using a generic fast gradient method. The solubility of each compound is expressed by the ratio of compound amount in the sample test solution to the amount of compound in the standard solution.

Data set [10] has as its system PA14 biofilm. The experiment in a line: Biofilm formation in 96-well plates, PA14. It is filed as cell-based, Pseudomonas aeruginosa. The note with it: PA14, 10 µM, 24 h.
In data set [11] the target is MvfR binding to the pqsA promoter (Pseudomonas aeruginosa, UniProt Q9I4X0). In kind it is cell-based. To be noted: D88 −, PQS +; Figure 5c; replicates.
[12] abbreviates: read-out: Pyocyanin production relative to Control, clinical isolate LGR-4325.
The mark [13] stands for this setting: read-out: Pyocyanin production relative to Control, clinical isolate LGR-4326.
The mark [14] stands for this setting: read-out: Pyocyanin production relative to Control, clinical isolate LGR-4327.
Where [15] appears, read: read-out: Pyocyanin production relative to Control, clinical isolate LGR-4328.
Setting [16] is: read-out: Pyocyanin production relative to Control, clinical isolate LGR-4330.
Setting [17] is: read-out: Pyocyanin production relative to Control, clinical isolate LGR-4331 (first section, r117).
Setting [18] is: read-out: Pyocyanin production relative to Control, clinical isolate LGR-4331 (second section, r140).
Where [19] appears, read: read-out: Pyocyanin production relative to Control, clinical isolate LGR-4333.
Where [20] appears, read: read-out: Pyocyanin production relative to Control, clinical isolate LGR-4343.
Where [21] appears, read: read-out: Pyocyanin production relative to Control, clinical isolate LGR-4344.
The mark [22] stands for this setting: read-out: Pyocyanin production relative to Control, clinical isolate LGR-4348.
Where [23] appears, read: read-out: Pyocyanin production relative to Control, clinical isolate LGR-4356.
[24] abbreviates: read-out: Pyocyanin production relative to Control, clinical isolate LGR-4362.
[25] abbreviates: read-out: Pyocyanin production relative to Control, clinical isolate LGR-4363.
The mark [26] stands for this setting: read-out: Pyocyanin production relative to Control, clinical isolate LGR-4364 (first section, r326).
Where [27] appears, read: read-out: Pyocyanin production relative to Control, clinical isolate LGR-4364 (second section, r349).
Where [28] appears, read: read-out: DHQ, ΔmvfR-pqsABCD strain.
The mark [29] stands for this setting: read-out: HQNO, ΔmvfR-pqsABCD strain.
Setting [30] is: read-out: PQS, ΔmvfR-pqsABCD strain.

Molecules are shown by their SMILES. In brackets after ≈: the same amount, converted by molar mass. Several values for one entry are separate records, joined by “and”; a condition that tells them apart may be missing. Equal entries are not always repeated. Where two headings read alike, the source gives them in different places.

MvfR binding to the pqsA promoter, sequence (Q9I4X0 whole entry, looked up): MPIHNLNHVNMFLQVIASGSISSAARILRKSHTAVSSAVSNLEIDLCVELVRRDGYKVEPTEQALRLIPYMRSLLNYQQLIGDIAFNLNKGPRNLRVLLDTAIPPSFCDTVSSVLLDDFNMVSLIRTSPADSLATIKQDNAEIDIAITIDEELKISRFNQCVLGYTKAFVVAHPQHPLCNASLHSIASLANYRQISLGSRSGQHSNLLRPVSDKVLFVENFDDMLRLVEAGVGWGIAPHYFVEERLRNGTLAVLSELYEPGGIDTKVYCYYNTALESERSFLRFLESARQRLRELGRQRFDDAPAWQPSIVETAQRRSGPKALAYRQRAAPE

One may read the solubility as the concentration that dissolves in the medium under given conditions. As to `N#Cc1ccc(NC(=O)CC(=O)Nc2ccc(C#N)c(Cl)c2)cc1` [D95], the activity at 10 µM came to 11.5% in data set [1] (setting [12]); 6.63% in data set [1] (setting [13]); 14.1% in data set [1] (setting [14]); 16.3% in data set [1] (setting [15]); 19.6% in [1] (setting [16]); 14.8% in data set [1] (setting [17]). For the same molecule, the activity at 10 µM amounted to 7.46% in [1] (setting [18]); 9.75% in [1] (setting [19]); 12.1% in data set [1] (setting [20]); 14.6% in [1] (setting [21]); 19.2% in data set [1] (setting [22]); 7.92% in [1] (setting [23]). For the same molecule, the activity at 10 µM worked out at 30.4% in data set [1] (setting [24]); 9.55% in [1] (setting [25]); 8.11% in data set [1] (setting [26]); 13.7% in [1] (setting [27]); 35.3% in data set [6]; 17.7% in data set [8]. Further, the activity at 50 µM stood at 11% in data set [2] (PA14, read-out: % Production 2-AA); 774% in data set [2] (PA14, read-out: % Production AA); 13% in data set [2] (PA14, read-out: % Production DHQ); 5% in data set [2] (PA14, read-out: % Production HHQ); 30% in data set [2] (PA14, read-out: % Production HQNO); 10% in data set [2] (PA14, read-out: % Production PQS). In addition, the activity at 50 µM in data set [3] came to 4%; in data set [5] (setting [28]) it was 95.2%; in [5] (setting [29]), 97.2%; in data set [5] (setting [30]) it was 100%; in data set [7] it was 6%. The inhibition at 50 µM lay within 89 to 99% in [2] (PA14, read-out: HHQ production inhibition); 40 to 92% in [2] (PA14, read-out: HQNO production inhibition); 76 to 97% in data set [2] (PA14, read-out: PQS production inhibition); 82 to 95% in data set [2] (PA14, read-out: inhibition of 2-AA production); 82 to 96% in data set [2] (PA14, read-out: inhibition of DHQ production). Further, the IC50 in [3] is 0.9 µM; in data set [7] (PA14, read-out: IC50 pqsA-GFP expression, PA14, 13 concentrations), 1.09 µM. Besides, the inhibition at 10 µM in data set [4] was no less than 51%. In data set [9] (pH 7.4, aqueous with cosolvent or surfactant or cyclodextrin), the concentration in solution (solubility at 4 h) was 1.7e-05 M (≈ 5.76 µg/mL).

Consider `O=C(Nc1ccc(Oc2ccccc2)cc1)C(F)C(=O)Nc1ccc(C(F)(F)F)cc1` (stereo not drawn) [D100], for which, in data set [10], the “biofilm formation inhibition rate” value is listed as “highest inhibition”. Besides, the activity at 10 µM is 13.3% in data set [1] (setting [12]); 19.1% in data set [1] (setting [13]); 21.7% in [1] (setting [14]); 31.1% in [1] (setting [15]); 31.1% in [1] (setting [16]); 23.5% in [1] (setting [17]). The activity at 10 µM in data set [1] (setting [18]) was 12%; in [1] (setting [19]), 15.4%; in data set [1] (setting [20]) it was 13.4%; in [1] (setting [21]) it was 16.3%; in data set [1] (setting [22]) it was 26.1%; in [1] (setting [23]), 16.4%. The activity at 10 µM in [1] (setting [24]) is 33%; in [1] (setting [25]), 10.2%; in data set [1] (setting [26]) it was 13.3%; in data set [1] (setting [27]), 10.6%; in data set [6], 42.2%; in data set [8] it was 39.3%. Moreover, the activity at 50 µM in [3] was determined as 7%; in [5] (read-out: 2-AA, ΔmvfR-pqsABCD strain) it was 97.5%; in [5] (setting [28]), 92.5%; in [5] (read-out: HHQ, ΔmvfR-pqsABCD strain) it was 104%; in [5] (setting [29]), 98.7%; in data set [5] (setting [30]), 81.3%. For the same molecule, the activity at 50 µM in [7] came out at 2%. Besides, the IC50 in [3] stood at 0.38 µM. In addition, the “AT/P cells formation, percentage of control (single replicates)” value in [4] (PA14, 10 μg mL^−1 meropenem, 10 µM compound, 24 h, control PA14 + vehicle) is 18.86% and 47.86% and 24.02%. Besides, the inhibition at 10 µM in data set [4] is no less than 51%. In addition, the solubility at 4 h in [9] (isotonic phosphate buffer (iPBS), aqueous with cosolvent or surfactant or cyclodextrin, iPBS pH 7.4, HPLC, read-out: Solubility (M) in PBS) stood at 5e-06 M (≈ 2.16 µg/mL).

On to `CCCCCCCc1nc2ccccc2c(O)c1O` [PQS], for which the “MvfR binding to the pqsA promoter (ChIP-qPCR)” value in data set [11] was 12.2267 and 11.783 and 5.7525.

(Values after publication PMC9428149, “Tackling recalcitrant Pseudomonas aeruginosa infections in critical illness via anti-virulence monotherapy” (Nature Communications, 2022).)
